From patent US6872401B2, “Cosmetic/dermatological compositions comprising a tetrahydrocurcuminoid and an amide oil” (L'Oreal, priority 2002, dated 2005)

Experiment: Test of solubility: mixture of tetrahydrocurcuminoids in oils, microscopic examination
Format: physicochemical
Conditions: 1 g Tetrahydrocurcuminoids CG adjusted to 10 g with the oil, 15 minutes at 80° C., cooled 24 hours at room temperature
Description: Two amide oils in accordance with the invention are compared to 13 conventional oils used in cosmetics. Their solubilizing power is studied on a mixture of tetrahydrocurcuminoids of formula (I): i.e., the commercial product Tetrahydrocurcuminoids CG from Sabinsa as defined above.
1 g of a mixture of tetrahydrocurcuminoids is weighed and adjusted to 10 g with the oil studied. The mixture is heated for 15 minutes on a waterbath at 80° C. It is allowed to cool for 24 hours at room temperature and a microscopic examination is performed.

## CCCCN(CCC(=O)OCC)C(C)=O [N-acetyl-N-butylaminopropionate]
  SOLUBILITY AFTER 24 HOURS AT ROOM TEMPERATURE: completely dissolve the mixture of tetrahydrocurcuminoids
